In patent US20220233661A1, “METHOD OF DETERMINING ELIGIBILITY OF CANCER PATIENT FOR PEPTIDE VACCINE THERAPY” (priority 2019, published 2022):

Assays:
[1] = test system: anti-peptide IgG in plasma; experiment: Test Example 4: peptide-specific IgG titer pre and post vaccination, bead-based multiplexed Luminex assay; type: in vivo, human; conditions: for Pre-vaccination IgG Negative (number of patients) / Pre-vaccination IgG Positive (number of patients): cut off 10 FIU; for Post vaccination IgG: number of (positive) patients among vaccinated: positive IgG response; for Pre-vaccination IgG Negative patients: number of 2,588 patients below 10 FIU; for Pre-vaccination IgG Positive patients: number of 2,588 patients with ≥10 FIU; for Post vaccination IgG: (positive) patients: number of vaccinated patients with positive IgG response; for Correlation between immune responses and OS: Negative (mOS): patients with negative post-vaccination IgG response to the peptide; for Correlation between immune responses and OS: Positive (mOS): patients with positive post-vaccination IgG response to the peptide
Description: As described previously, IgG titer specific to the antigen peptides in plasma was measured by bead-based multiplexed Luminex assay (Luminex, Austin, Tex.) before and after vaccination, i.e., at the end of each cycle or at the end of the clinical trial (Non-Patent Literature 4). In brief, 30 mL of peripheral blood was obtained before and after vaccination. Plasma was incubated with 100 μL of peptide-coupled color-coded beads for 2 hours at 25° C. on a plate shaker. After the incubation, the resultant mixture was washed with a vacuum manifold apparatus and incubated with 100 μL of biotinylated goat anti-human IgG (gamma chain-specific; Vector Laboratories, Burlingame, Calif.) for 1 hour at 25° C. on a plate shaker. The plate was then washed, followed by addition of 100 μL of streptavidin-PE (Life Technologies) to each well, and incubation for 30 minutes at 25° C. on a plate shaker. The resultant beads were washed 4 times, followed by addition of 100 μL of Tween-PBS to each well, and detection of fluorescence intensity units (FIU) on the beads using the Luminex system. The cutoff values of anti-peptide IgG were set to 10 FIU in 100-fold diluted samples.
Pre-vaccination peptide-specific IgG titers to 31 peptides were measured using a Luminex system. As a detectable IgG level, 10 FIU was employed as the cut off level, as reported previously (Noguchi M, et al., Cancer Immunol Immunother. 2013 May; 62(5): 919-29; Sasada T, et al., Current Medicinal Chemistry. 21: 2332-2345, 2014; Kibe S, et al., Cancer Immunology Research 2014; 2(12): 1154-62).
Post-vaccination lgG titers were measured at the ends of the first cycle and the second cycle.

cancer patients = experiment: Test Example 4: correlation between vaccination with individual peptides (or peptide sets) and OS, Cox proportional hazards regression; type: in vivo, human; conditions: for HR: Cox proportional hazards regression, OS; for Correlation between immune responses and OS: Negative (mOS) / Correlation between immune responses and OS: Positive (mOS): Table 20, <64% neutrophil and ≥26% lymphocyte; for Correlation between immune responses and OS: Negative (mOS): vaccinated patients with negative IgG response; for Correlation between immune responses and OS: Positive (mOS): vaccinated patients with positive IgG response
Description: The Student's t-test and the chi-square test were used to compare quantitative and categorical variables, respectively. OS was calculated as the time in months from the date of clinical trial enrollment to death or to the date of last contact. Time-to-event endpoints were analyzed using the Kaplan-Meier method, and between-group comparison for OS was conducted using the log-rank test. Clinical efficacy of the individual peptides for OS was evaluated by univariate and multivariate analyses with the Cox proportional hazards regression model, and HR and 95% CI were calculated. All reported p-values were two-sided, and p-values less than 0.05 were considered significant. JMP version 12 or SAS version 9.4 software (SAS Institute Inc., Cary, N.C.) was used to perform all analyses.
Correlation levels of the 31 peptides for OS were evaluated by the Cox proportional hazards regression model.
Similarly, in the 2,085 advanced cancer patients (stage IV+recurrence) and the 503 non-advanced cancer patients (I-III stages) correlation levels of the 31 peptides for OS were evaluated by the Cox proportional hazards regression model. […]

[2] = Table 20, patients showing both <64% neutrophil and ≥26% lymphocyte
[3] = patients showing detectable levels
[4] = patients showing positive responses
[5] = Table 18, all 2,588 cases, vaccinated vs non-vaccinated
[6] = Table 18, all 2,588 cases, median OS of patients under PPV containing the peptide
[7] = Table 18, all 2,588 cases, median OS of patients under PPV not containing the peptide
[8] = Table 19, 2,085 advanced cancer patients (stage IV+recurrence)
[9] = Table 19, 2,085 advanced cancer patients (stage IV+recurrence), PPV containing the peptide
[10] = Table 19, 2,085 advanced cancer patients (stage IV+recurrence), PPV not containing the peptide
[11] = Table 21, patients showing both <64% neutrophil and ≥26% lymphocyte
[12] = Table 21, patients showing both <64% neutrophil and ≥26% lymphocyte, PPV containing the peptide
[13] = Table 21, patients showing both <64% neutrophil and ≥26% lymphocyte, PPV not containing the peptide

Sequence | Post vaccination IgG Median (FIU) [1, 2] | Pre-vaccination IgG Median (FIU) [1, 2] | Pre-vaccination IgG Negative (number of patients) [1, 2] | Pre-vaccination IgG Positive (number of patients) [1, 2] | Post vaccination IgG: number of (positive) patients among vaccinated [1, 2] | Pre-vaccination IgG Negative patients [1] | Pre-vaccination IgG Positive patients [1] | Post vaccination IgG: (positive) patients [1] | Pre-vaccination IgG Median (FIU) [1, 3] | Post vaccination IgG Median (FIU) [1, 4] | Correlation between immune responses and OS: Negative (mOS) [1] | Correlation between immune responses and OS: Positive (mOS) [1] | HR (cancer patients; [5]) | Vaccinate cases (mOS) (cancer patients; [6]) | Non-vaccinate cases (mOS) (cancer patients; [7]) | HR (cancer patients; [8]) | Vaccinate cases (mOS) (cancer patients; [9]) | Non-vaccinate cases (mOS) (cancer patients; [10]) | Correlation between immune responses and OS: Negative (mOS) (cancer patients) | Correlation between immune responses and OS: Positive (mOS) (cancer patients) | further results
ILGELREKV (listed as Homo sapiens) [WHSC2-141] | 18,171 FIU | 38 FIU | 261 | 805 | 134(91) | 680 | 1,908 | 325(173) | 39 FIU | 13,078 FIU | 7.7 months | 19.0 months | 1.0 | 325(12.1) M | 725(11.1) M | 1.0 | 271(11.1) M | 591(10.1) M | 12 months | 28.2 months | HR (cancer patients; [11]): 1.0; Vaccinate cases (mOS) (cancer patients; [12]): 134(18.0) M; Non-vaccinate cases (mOS) (cancer patients; [13]): 300(16.6) M
KLKHYGPGWV (listed as Homo sapiens) [CypB-129] | 3,143 FIU | 28 FIU | 290 | 776 | 196(110) | 700 | 1,888 | 483(222) | 31 FIU | 2,483 FIU | 9.0 months | 23.8 months | 0.9 | 483(12.3) M | 1458(11.2) M | 0.9 | 393(10.9) M | 1183(10.1) M | 13.2 months | 29.4 months | HR (cancer patients; [11]): 0.9; Vaccinate cases (mOS) (cancer patients; [12]): 196(19.3) M; Non-vaccinate cases (mOS) (cancer patients; [13]): 612(16.9) M
KLVERLGAA (listed as Homo sapiens) [Lck-246] | 15,377 FIU | 48 FIU | 299 | 767 | 161(92) | 773 | 1,815 | 366(169) | 49 FIU | 10,806 FIU | 8.3 months | 19.3 months | 1.0 | 366(11.4) M | 684(11.6) M | 1.0 | 300(9.8) M | 562(10.4) M | 8.7 months | 28.2 months | HR (cancer patients; [11]): 1.1; Vaccinate cases (mOS) (cancer patients; [12]): 161(15.4) M; Non-vaccinate cases (mOS) (cancer patients; [13]): 273(18.2) M
KYVGIEREM (listed as Homo sapiens) [EZH2-735] | 20,673 FIU | 23 FIU | 837 | 229 | 31(25) | 2,030 | 558 | 69(51) | 23 FIU | 17,691 FIU | 5.3 months | 24.7 months | 0.9 | 69(13.3) M | 1,481(11.9) M | 0.9 | 53(11.9) M | 1193(10.4) M | 6.7 months | 26.7 months | positive immune responses post-vaccination (positive of vaccinated cases) ([1]; patients who completed at least the first cycle): 51 of 69; HR (cancer patients; [11]): 0.7; Vaccinate cases (mOS) (cancer patients; [12]): 31(26.5) M; Non-vaccinate cases (mOS) (cancer patients; [13]): 594(18.0) M
LLQAEAPRL (listed as Homo sapiens) [SART3-302] | 17,719 FIU | 84 FIU | 375 | 691 | 173(138) | 948 | 1,640 | 408(271) | 84 FIU | 14,958 FIU | 9.1 months | 18.2 months | 0.9 | 408(12.7) M | 642(10.5) M | 0.9 | 328(11.4) M | 534(9.8) M | 10.8 months | 21.2 months | HR (cancer patients; [11]): 0.9; Vaccinate cases (mOS) (cancer patients; [12]): 173(18.1) M; Non-vaccinate cases (mOS) (cancer patients; [13]): 261(16.3) M
LYAWEPSFL (listed as Homo sapiens) [MRP3-503] | 13,871 FIU | 40 FIU | 885 | 181 | 61(46) | 2,121 | 467 | 133(85) | 37 FIU | 6,401 FIU | 9.3 months | 20.6 months | 0.9 | 133(14.1) M | 1,417(11.9) M | 0.9 | 108(13.4) M | 1138(10.4) M | 12.6 months | 25.1 months | HR (cancer patients; [11]): 1.0; Vaccinate cases (mOS) (cancer patients; [12]): 61(24.3) M; Non-vaccinate cases (mOS) (cancer patients; [13]): 564(18.1) M
